Test results as given in patent US8729269B2, “Substituted piperidino phenyloxazolidinones having antimicrobial activity with improved in vivo efficacy” (Wockhardt Limited, priority 2003, dated 2014).
In brackets after ≈: the same amount, converted by molar mass.

What was measured:
[1] = tested on: Streptococcus pneumoniae 49619 (SPN 49619); test: Minimum Inhibitory Concentration (MIC) determination, agar with 5% sheep blood; assay type: cell-based; settings: Mueller Hinton agar containing 5% sheep blood
Protocol: (§1) Overnight grown cultures of Methicilin resistant Staphylococcus aureus 32 (MRSA 32), Methicilin resistant Staphylococcus epidermidis 118 (MRSE 118), Vancomycin resistant enterococci 303 (VRE 303) in Tryptic Soya broth were diluted in Mueller Hinton Broth to give optical density matching with MacFarland tube 0.5 standard. Cultures were further diluted 1:10 in Mueller Hinton broth. Using Denley's multipoint inoculator, 10^4 cells were deposited on Mueller Hinton agar (Difco) containing range of 2 fold dilutions of test compounds. These plates were incubated for 24 hrs at 35° C. and MIC results recorded. MIC is defined as minimum drug concentration that inhibits test organisms. For determining MIC of test compounds against Streptococcus pneumoniae 49619 (SPN 49619) and Streptococcus pyogenes 801 (SPY 801), Mueller Hinton agar containing 5% sheep blood was employed.

[2] = tested on: Streptococcus pyogenes 801 (SPY 801); test: as above; assay type: cell-based; settings: Mueller Hinton agar containing 5% sheep blood
Protocol: as §1

[3] = tested on: methicillin resistant Staphylococcus aureus strain MRSA 32; test: Murine Assay Procedure (in vivo efficacy, MRSA 32 infection); settings: swiss mice infected intraperitoneally with MRSA 32, oral gavage 1 h after infection, repeat dose 3 hrs later, percentage survival on Day 7
Protocol: Oxazolidinone new chemical entities (NCEs) were evaluated for their in vivo efficacy in a murine infection caused by multi-drug resistant, methicillin resistant Staphylococcus aureus strain, referred to as MRSA 32, a clinical isolate obtained from a hospitalized patient. The procedure used for the murine assay is as follows:
Four weeks old swiss mice of 18-22 gm body weight were infected with MRSA 32 strain suspended in 5% Hog gastric mucin. The infecting dose of bacteria was set at 1-2×10^8 CFU/animal. The infecting dose was administered in 0.5 ml volume injected into peritonial cavity of mice. The treatment with oxazolidinone NCEs was started one hour after infection by administering 100-200 μl of the suspensions of oxazolidinone compounds in 5% Tween 80 by oral gavage. A repeat dose was similarly administered 3 hrs later. Each oxazolidinone NCE was tested at 2-3 different dosages in the range of 2.5 mg/kg to 20 mg/kg. In each dose group 6 mice were included. As an infection control group 12 mice were infected with MRSA 32 strain without giving any treatment. For compounds affording protection of MRSA infected mice, ED50 dosages were calculated on the basis of percentage survival on Day 7 after infection.

[4] = tested on: Methicilin resistant Staphylococcus aureus 32 (MRSA 32); test: Minimum Inhibitory Concentration (MIC) determination, agar dilution; assay type: cell-based; settings: Mueller Hinton agar, 24 hrs at 35° C.
Protocol: as §1

[5] = tested on: Vancomycin resistant enterococci 303 (VRE 303); test: as above; assay type: cell-based; settings: Enterococcus, Mueller Hinton agar, 24 hrs at 35° C.
Protocol: as §1

[6] = tested on: Methicilin resistant Staphylococcus epidermidis 118 (MRSE 118); test: as above; assay type: cell-based; settings: Mueller Hinton agar, 24 hrs at 35° C.
Protocol: as §1

Row | Structure (SMILES) | MIC [1] [µg/mL] | MIC [2] [µg/mL] | MIC [4] [µg/mL] | MIC [5] [µg/mL] | MIC [6] [µg/mL] | ED50 [3] [mg/kg]
1 | CC(=O)NC[C@H]1CN(c2ccc(N3CCC(C)(F)CC3)c(F)c2)C(=O)O1 [Example 1, (S)—N-{3-[4-(4-Fluoro-4-methylpiperidin-1-yl)-3-fluorophenyl]-2-oxo-oxazolidin-5-ylmethyl}-acetamide] | 2 (≈ 5.44 µM) | 2 (≈ 5.44 µM) | 4 (≈ 10.9 µM) | 4 (≈ 10.9 µM) | 2 (≈ 5.44 µM) | 10
2 | CC(=O)NC[C@H]1CN(c2ccc(N3CCC4(OCCO4)C(F)C3)c(F)c2)C(=O)O1 (stereo partly drawn) [Example 133, (S)—N-{3-[4-(1,4-dioxa-6-fluoro-8-aza-spiro[4.5]dec-8-yl)-3-fluorophenyl]-2-oxo-oxazolidin-5-ylmethyl}-acetamide] | 2 (≈ 4.86 µM) | 2 (≈ 4.86 µM) | 4 (≈ 9.72 µM) | 4 (≈ 9.72 µM) | 2 (≈ 4.86 µM) | 5
3 | C=CCC1(O)CCN(c2ccc(N3C[C@H](COS(C)(=O)=O)OC3=O)cc2F)CC1 [Example 41] | 16 (≈ 37.3 µM) | 16 (≈ 37.3 µM) | 8 (≈ 18.7 µM) | 8 (≈ 18.7 µM) | 8 (≈ 18.7 µM) | 10
4 | CC(=O)NC[C@H]1CN(c2ccc(N3CCC(F)(CNS(C)(=O)=O)CC3)c(F)c2)C(=O)O1 [Example 7, (S)—N-{3-[4-(4-Fluoro-4-methanesulfonamidomethylpiperidin-1-yl)-3-fluorophenyl]-2-oxo-oxazolidin-5-ylmethyl}-acetamide] | 1 (≈ 2.17 µM) | 1 (≈ 2.17 µM) | 1 (≈ 2.17 µM) | 2 (≈ 4.34 µM) | 0.5 (≈ 1.09 µM) | 5
5 | CC(=O)NC[C@H]1CN(c2ccc(N3CCC4(CC3)SCCN4C)c(F)c2)C(=O)O1 [Example 113, (S)—N-{3-[4-(8-aza-1-thia-4-(N-methyl)-spiro[4.5]dec-8-yl)-3-fluorophenyl]-2-oxo-oxazolidin-5-ylmethyl}-acetamide] | 2 (≈ 4.73 µM) | 2 (≈ 4.73 µM) | 4 (≈ 9.47 µM) | 4 (≈ 9.47 µM) | 1 (≈ 2.37 µM) | 10
6 | CC(=O)NC[C@H]1CN(c2ccc(N3CCC4(CC3)C[C@@H]4C#N)c(F)c2)C(=O)O1 [Example 99, (1S,5S)—N-{3-[4-(1-cyano-6-aza-spiro[2.5]oct-6-yl)-3-fluorophenyl]-2-oxo-oxazolidin-5-ylmethyl}-acetamide] | 0.5 (≈ 1.29 µM) | 0.5 (≈ 1.29 µM) | 2 (≈ 5.18 µM) | 2 (≈ 5.18 µM) | 1 (≈ 2.59 µM) | 5

Further lines, with some results ahead:

Row | MIC [1] [µg/mL] | MIC [2] [µg/mL] | MIC [4] [µg/mL] | MIC [5] [µg/mL] | MIC [6] [µg/mL] | Structure (SMILES) | ED50 [3] [mg/kg]
7 |  |  | 8 (≈ 21.2 µM) | 8 (≈ 21.2 µM) | 4 (≈ 10.6 µM) | COCC1(O)CCN(c2ccc(N3C[C@H](CNC(C)=O)OC3=O)cc2)CC1 [Example 177, (S)—N-{3-[4-(4-methoxymethyl-4-hydroxy-piperidin-1-yl)-phenyl]-2-oxo-oxazolidin-5-ylmethyl}-acetamide] | 10
8 | 1 (≈ 2.36 µM) | 1 (≈ 2.36 µM) | 2 (≈ 4.71 µM) | 2 (≈ 4.71 µM) | 1 (≈ 2.36 µM) | CC(=O)NC[C@H]1CN(c2cc(F)c(N3CCC(O)(CN=[N+]=[N-])CC3)c(F)c2)C(=O)O1 [Example 186, (S)—N-{3-[4-(4-Azidomethyl-4-hydroxypiperidin-1-yl)-3,5-difluorophenyl]-2-oxo-oxazolidin-5-ylmethyl}-acetamide] | 5
9 | 4 (≈ 9.82 µM) | 4 (≈ 9.82 µM) | 4 (≈ 9.82 µM) | 8 (≈ 19.6 µM) | 1 (≈ 2.45 µM) | CC(=O)NC[C@H]1CN(c2ccc(N3CCC4(CC3)COCCO4)c(F)c2)C(=O)O1 [Example 160, (S)—N-{3-[4-(1,4-dioxa-9-aza-spiro[5.5]undec-9-yl)-3-fluorophenyl]-2-oxo-oxazolidin-5-ylmethyl}-acetamide] | 10
10 | 2 (≈ 4.92 µM) | 4 (≈ 9.84 µM) | 2 (≈ 4.92 µM) | 4 (≈ 9.84 µM) | 2 (≈ 4.92 µM) | CS(=O)(=O)OC[C@H]1CN(c2cc(F)c(N3CCC(O)CC3)c(F)c2)C(=O)O1 [Example 173, (R)—N-{3-[4-(4-hydroxy-piperidin-1-yl)-3,5-difluorophenyl]-2-oxo-oxazolidin-5-ylmethyl}-methanesulfonate] | 5
11 | 4 (≈ 9.1 µM) | 4 (≈ 9.1 µM) | 8 (≈ 18.2 µM) |  |  | CC(=O)NC[C@H]1CN(c2ccc(N3CCC4(CC3)C[S+]([O-])CCO4)c(F)c2)C(=O)O1 (stereo partly drawn) [Example 162, (S)—N-{3-[4-(1-oxa-4-sulfinyl-9-aza-spiro[5.5]undec-9-yl)-3-fluorophenyl]-2-oxo-oxazolidin-5-ylmethyl}-acetamide] | 10
